In general, EC50 refers to the concentration that produces a half-maximal response. Higher therefore signals a less potent agent.

Here are results for 36 molecules from patent publication US20240368174A1, “Antiviral Heterocyclic Compounds” (Enanta Pharmaceuticals, Inc., priority 2023, published 2024).

The test system of the experiment is HMPV clinical isolate A2 strain TN 94-49. Nature of the experiment: HMPV antiviral assay, Method 2 (LLC-MK2 cells with CP-100-356, ATP-Lite). The class given is cell-based. To be noted: human metapneumovirus. Summed up:
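EC50 comes from a four-parameter fit of percent cell viability (ATP-Lite, normalized to virus-only and cell-only wells) after 7 days at 37 °C. Infection used HMPV A2 TN 94-49 at MOI 0.16 in LLC-MK2 cells, with 2 μM P-gp inhibitor CP-100-356 and 2 μg/mL TPCK-trypsin final; dose range 200 nM top, 2.5-fold, 10 points, duplicate.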

[1] abbreviates: 168 h, hMPV A2 TN/94-49, LLC-MK2 cells with 4 μM CP-100-356, 7 days, ATP-Lite.
[2] abbreviates: hMPV A2 TN/94-49, LLC-MK2 cells with CP-100-356, Method 2.

Bounds are passed on as bounds.

Consider `COc1nccc(-c2nc([C@@](O)(CNC(=O)c3cc(OC)c4nc(C)c(Cl)cc4c3)c3cccc(F)c3)cc3c2OC[C@]3(C)C(N)=O)c1Cl` [Example 659], for which, under setting [1], the EC50 is less than 200 nM.

On to `COc1cc(C(=O)NC[C@](O)(c2cc3c(c(-c4ccn5nc(C)cc5c4Cl)n2)OC[C@]3(C)C(N)=O)C2CC2)cc2cn(C3CC3)nc12` [Example 837], for which the EC50 under setting [1] was greater than 200 nM. `COc1cc(C(=O)NC[C@@](O)(c2ccnc(C#N)c2)c2cc3c(c(-c4cc(Cl)c(F)cc4F)n2)OC[C@]3(C)C(N)=O)cc2cn(C3CC3)nc12` [Example 501]: the EC50 under setting [2] is less than 200 nM. On the same count and under the same terms, then `Cc1nc2c(OC3CC3)cc(C(=O)NC[C@@](O)(c3ccccc3)c3cc4c(c(-c5cc(Cl)c(F)cc5F)n3)OC[C@]4(C)C(N)=O)cc2s1` [Example 189], with less than 200 nM; and `C[C@]1(C(N)=O)COc2c1cc([C@@](O)(CNC(=O)c1cc(Cl)c3nn(C4CC4)cc3c1)C1CC1)nc2-c1cc(C(F)(F)F)ncc1F` [Example 353], with less than 200 nM. Molecule `COc1nccc(-c2nc([C@@](O)(CNC(=O)c3cc(OC)c4nn(C(F)F)cc4c3)c3cccc(F)c3)cc3c2OC[C@]3(C)C(N)=O)c1Cl` [Example 558] gave an EC50 under setting [2] of less than 200 nM. `COc1cc(C(=O)NC[C@](O)(c2cc3c(c(-c4c(F)cncc4Cl)n2)OC[C@]3(C)C(N)=O)C2CC2)cc2cn(C3CC3)nc12` [Example 434] had an EC50 under setting [2] of less than 200 nM.

`COc1cc(C(=O)NC[C@](O)(c2cc3c(c(-c4ccnc(Cl)c4C)n2)OC[C@]3(C)C(N)=O)C2CC2)cc2cn(C3CC3)nc12` [Example 815]: the EC50 under setting [1] is less than 200 nM. On the same count and under the same terms, the result for `COc1cc(C(=O)NC[C@@](O)(c2ccccc2)c2cc3c(c(-c4ccnc(C)c4Cl)n2)OC[C@]3(C)C(N)=O)cc2cn(C3(F)CC3)nc12` [Example 693] reads less than 200 nM. With `COc1cc(C(=O)NC[C@](O)(c2cc3c(c(-c4cc(Cl)c(F)cc4F)n2)OC[C@]3(C)C(N)=O)C2CC2)cc(O)c1NC(=O)C1(F)CC1` [Example 236], the EC50 under setting [2] is greater than 200 nM. In the case of `COc1nccc(-c2nc([C@@](O)(CNC(=O)c3cc(OC4CC4)n4nc(C5CC5)cc4c3)C(F)(F)F)cc3c2OC[C@]3(C)C(N)=O)c1Cl` [Example 607], the EC50 under setting [2] was less than 200 nM. `COc1cc(C(=O)NC[C@@](O)(c2cccc(F)c2)c2cc3c(c(-c4ccnc(C(F)F)c4Cl)n2)OC[C@]3(C)C(N)=O)cc2oc(C3CC3)nc12` [Example 567] came in with an EC50 under setting [2] of less than 200 nM. `COc1cc(C(=O)NC[C@](O)(c2cc3c(c(-c4c(C)cncc4F)n2)OC[C@]3(C)C(N)=O)C2CC2)cc2cn(C3CC3)nc12` [Example 725] showed an EC50 under setting [1] of less than 200 nM. Molecule `COc1cc(C(=O)NC[C@](O)(c2cc3c(c(-c4ccnc(C5CCOCC5)c4Cl)n2)OC[C@]3(C)C(N)=O)C2CC2)cc2oc(C3CC3)nc12` [Example 906] registered an EC50 under setting [1] greater than 200 nM. The molecule `COc1cc(C(=O)NC[C@@](O)(c2cccc(F)c2)c2cc3c(c(-c4cc(C(F)(F)F)c(F)cc4F)n2)OC[C@]3(C)C(N)=O)cc2cn(C(F)F)nc12` [Example 301] yielded an EC50 under setting [2] of less than 200 nM.

The molecule `COc1cc(C(=O)NC[C@@](O)(c2ccc(F)cc2)c2cc3c(c(-c4ccnc(C(F)(F)F)c4F)n2)OC[C@]3(C)C(N)=O)cc2oc(C(F)F)nc12` [Example 541] showed an EC50 under setting [2] of less than 200 nM. With `C[C@]1(C(N)=O)COc2c1cc([C@@](O)(CNC(=O)c1cc(OC3CC3)c3ncc(Cl)cc3c1)c1ccccc1)nc2-c1cc(Cl)c(F)cc1F` [Example 196], under setting [2], the EC50 was less than 200 nM.

The molecule `COc1cc(C(=O)NC[C@](O)(c2cc3c(c(-c4cc(Cl)c(F)cc4F)n2)OC[C@]3(C)C(N)=O)c2ccnn2C)cc2cn(C3CC3)nc12` [Example 481] came in with an EC50 under setting [2] of less than 200 nM.

Take `COc1nccc(-c2nc([C@@](O)(CNC(=O)c3cc(OC4CC4)c4nn(C(F)F)cc4c3)C(F)(F)F)cc3c2OC[C@]3(C)C(N)=O)c1Cl` [Example 587]: the EC50 under setting [2] is less than 200 nM. On to `COc1cc(F)c(-c2nc([C@@](O)(CNC(=O)c3cc(OC)c4nn(C5(F)CC5)cc4c3)c3ccccc3)cc3c2OC[C@]3(C)C(N)=O)cc1F` [Example 363], for which the EC50 under setting [2] was greater than 200 nM.

In the case of `COc1cccc2c1cnn2-c1nc([C@@](O)(CNC(=O)c2cc(OC)c3nn(C4CC4)cc3c2)C2CC2)cc2c1OC[C@]2(C)C(N)=O` [Example 833], the EC50 under setting [1] is greater than 200 nM. On to `Cc1nccc(-c2nc([C@@](O)(CNC(=O)c3cc(OC4CC4)c4nn(C5(F)CC5)cc4c3)c3cccc(F)c3)cc3c2OC[C@]3(C)C(N)=O)c1Cl` [Example 605], for which the EC50 under setting [2] is less than 200 nM.

In the case of `COc1cc(C(=O)NC[C@@](O)(c2cnccn2)c2cc3c(c(-c4cc(Cl)c(F)cc4F)n2)OC[C@]3(C)C(N)=O)cc2cn(C3CC3)nc12` [Example 487], the EC50 under setting [2] was less than 200 nM. `COc1cc(C(=O)NC[C@](O)(c2cc3c(c(-c4ccnc(C(C)C)c4Cl)n2)OC[C@]3(C)C(N)=O)C2CC2)cc2cn(C3(F)CC3)nc12` [Example 908] had a half-maximal effective concentration (EC50) under setting [1] greater than 200 nM. Under setting [1], `COc1cc(C(=O)NC[C@](O)(c2cc3c(c(-c4cccc(C(=O)O)c4Cl)n2)OC[C@]3(C)C(N)=O)C2CC2)cc2cn(C3CC3)nc12` [Example 808] had an EC50 greater than 200 nM. For `COc1cc(C(=O)NC[C@@](O)(c2ccccc2)c2cc3c(c(-c4cccc(F)c4F)n2)OC[C@]3(C)C(N)=O)cc2cn(C3(F)CC3)nc12` [Example 367], the EC50 under setting [2] is less than 200 nM. For `COc1cc(C(=O)NC[C@@](O)(c2cccc(F)c2)c2cc3c(c(-c4ccnc(C)c4Cl)n2)OC[C@]3(C)C(N)=O)cc2cc(Cl)c(C)nc12` [Example 700], the half-maximal effective concentration (EC50) under setting [1] was less than 200 nM. Turning to `COc1nccc(-c2nc([C@@](O)(CNC(=O)c3cc(OC)c4nn(C5(F)CC5)cc4c3)c3cccc(F)c3)cc3c2OC[C@]3(C)C(N)=O)c1Cl` [Example 559], the EC50 under setting [2] was less than 200 nM. `COc1cc(C(=O)NC[C@](O)(c2cc3c(c(-c4cc(C(F)(F)F)c(F)cc4F)n2)OC[C@]3(C)C(N)=O)C2CC2)cc2cc(C(F)(F)F)cnc12` [Example 329] showed an EC50 under setting [2] of less than 200 nM. The molecule `COc1nccc(-c2nc([C@@](O)(CNC(=O)c3cc(OC4CC4)c4nn(C(F)F)cc4c3)C3CC(F)(F)C3)cc3c2OC[C@]3(C)C(N)=O)c1Cl` [Example 898] yielded an EC50 under setting [1] greater than 200 nM. `COc1cc(C(=O)NC[C@](O)(c2cc3c(c(-n4ccc5cnccc54)n2)OC[C@]3(C)C(N)=O)C2CC2)cc2cn(C3CC3)nc12` [Example 447] gave an EC50 under setting [2] of less than 200 nM. Consider `COc1cc(C(=O)NC[C@@](O)(c2ccccc2)c2cc3c(c(-c4ccc(S(C)(=O)=O)cc4F)n2)OC[C@]3(C)C(N)=O)cc2cn(C3(F)CC3)nc12` [Example 371], for which the EC50 under setting [2] was greater than 200 nM. Molecule `[2H]C([2H])([2H])c1nc2c(OC)cc(C(=O)NC[C@@](O)(c3ccccc3)c3cc4c(c(-n5ncc6c(F)cccc65)n3)OC[C@]4(C)C(N)=O)cc2s1` [Example 637] displayed an EC50 under setting [1] of less than 200 nM.

Under setting [2], `COc1cc(C(=O)NC[C@@](O)(c2cccc(Cl)n2)c2cc3c(c(-c4cc(Cl)c(F)cc4F)n2)OC[C@]3(C)C(N)=O)cc2cn(C3CC3)nc12` [Example 489] gave an EC50 of less than 200 nM.

On to `COc1nccc(-c2nc([C@@](O)(CNC(=O)c3cc(OC)c4nn(C5(F)CC5)cc4c3)c3ccccc3)cc3c2OC[C@]3(C)C(N)=O)c1Cl` [Example 555], for which the half-maximal effective concentration (EC50) under setting [2] is less than 200 nM.

As for `COc1cc(C(=O)NC[C@@](O)(c2cccc(F)c2)c2cc3c(c(-c4cc(F)c(F)cc4C(N)=O)n2)OC[C@]3(C)C(N)=O)cc2cn(C3(F)CC3)nc12` [Example 405], under setting [2], the EC50 was greater than 200 nM.
